In ChEMBL document CHEMBL3046822, “Synthesis, antiplatelet aggregation activity, and molecular modeling study of novel substituted-piperazine analogues” (2011):
The source made the active and inactive calls. The rule behind the calls is not given here.

Experiments:
[1] = Antiaggregating activity in Homo sapiens (human) platelet rich plasma assessed as disaggregation of ristocetin-induced platelet aggregation at 0.25 uM incubated for 4 min prior to ristocetin-induction measured for 5.5 min by turbidometric analysis relative to control; format: functional
Platelet [2] = experiment: Antiaggregating activity in Homo sapiens (human) platelet rich plasma assessed as inhibition of adrenaline-induced platelet aggregation at 1 uM incubated for 4 min prior to adrenaline-induction measured for 5.5 min by turbidometric analysis; format: functional, cell-free
Platelet [3] = experiment: Antiaggregating activity in Homo sapiens (human) platelet rich plasma assessed as inhibition of collagen-induced platelet aggregation at 0.5 uM incubated for 4 min prior to collagen-induction measured for 5.5 min by turbidometric analysis; format: functional, cell-free
Platelet [4] = experiment: Antiaggregating activity in Homo sapiens (human) platelet rich plasma assessed as inhibition of ADP-induced platelet aggregation at 0.5 uM incubated for 4 min prior to ADP-induction measured for 5.5 min by turbidometric analysis; format: functional, cell-free
[5] = Antiaggregating activity in Homo sapiens (human) platelet rich plasma assessed as ristocetin-induced platelet aggregation at 0.5 uM incubated for 4 min prior to ristocetin-induction measured for 5.5 min by turbidometric analysis (reference value: 65 to 99%); format: functional
Platelet [6] = experiment: Antiaggregating activity in Homo sapiens (human) platelet rich plasma assessed as inhibition of collagen-induced platelet aggregation at 0.25 uM incubated for 4 min prior to collagen-induction measured for 5.5 min by turbidometric analysis; format: functional
Platelet [7] = experiment: Antiaggregating activity in Homo sapiens (human) platelet rich plasma assessed as inhibition of collagen-induced platelet aggregation at 1 uM incubated for 4 min prior to collagen-induction measured for 5.5 min by turbidometric analysis; format: functional, cell-free
Platelet [8] = experiment: Antiaggregating activity in Homo sapiens (human) platelet rich plasma assessed as inhibition of arachidonic acid-induced platelet aggregation at 0.125 uM incubated for 4 min prior to arachidonic acid-induction measured for 5.5 min by turbidometric analysis; format: functional, cell-free
[9] = Antiaggregating activity in Homo sapiens (human) platelet rich plasma assessed as ristocetin-induced platelet aggregation at 1 uM incubated for 4 min prior to ristocetin-induction measured for 5.5 min by turbidometric analysis (reference value: 65 to 99%); format: functional
Platelet [10] = experiment: Antiaggregating activity in Homo sapiens (human) platelet rich plasma assessed as inhibition of arachidonic acid-induced platelet aggregation at 0.25 uM incubated for 4 min prior to arachidonic acid-induction measured for 5.5 min by turbidometric analysis; format: functional, cell-free
Platelet [11] = experiment: Antiaggregating activity in Homo sapiens (human) platelet rich plasma assessed as inhibition of adrenaline-induced platelet aggregation at 0.25 uM incubated for 4 min prior to adrenaline-induction measured for 5.5 min by turbidometric analysis; format: functional, cell-free
Platelet [12] = experiment: Antiaggregating activity in Homo sapiens (human) platelet rich plasma assessed as inhibition of adrenaline-induced platelet aggregation at 0.5 uM incubated for 4 min prior to adrenaline-induction measured for 5.5 min by turbidometric analysis; format: functional, cell-free
Platelet [13] = experiment: Antiaggregating activity in Homo sapiens (human) platelet rich plasma assessed as inhibition of ADP-induced platelet aggregation at 0.25 uM incubated for 4 min prior to ADP-induction measured for 5.5 min by turbidometric analysis; format: functional, cell-free
[14] = Antiaggregating activity in Homo sapiens (human) platelet rich plasma assessed as ristocetin-induced platelet aggregation at 0.125 uM incubated for 4 min prior to ristocetin-induction measured for 5.5 min by turbidometric analysis (reference value: 65 to 99%); format: functional
Platelet [15] = experiment: Antiaggregating activity in Homo sapiens (human) platelet rich plasma assessed as inhibition of arachidonic acid-induced platelet aggregation at 0.5 uM incubated for 4 min prior to arachidonic acid-induction measured for 5.5 min by turbidometric analysis; format: functional
Platelet [16] = experiment: Antiaggregating activity in Homo sapiens (human) platelet rich plasma assessed as inhibition of adrenaline-induced platelet aggregation at 0.125 uM incubated for 4 min prior to adrenaline-induction measured for 5.5 min by turbidometric analysis; format: functional, cell-free
Platelet [17] = experiment: Antiaggregating activity in Homo sapiens (human) platelet rich plasma assessed as inhibition of ADP-induced platelet aggregation at 1 uM incubated for 4 min prior to ADP-induction measured for 5.5 min by turbidometric analysis; format: functional, cell-free
[18] = Antiaggregating activity in Homo sapiens (human) platelet rich plasma assessed as disaggregation of ADP-induced platelet aggregation at 0.125 uM incubated for 4 min prior to ADP-induction measured for 5.5 min by turbidometric analysis relative to control; format: functional
[19] = Antiaggregating activity in Homo sapiens (human) platelet rich plasma assessed as collagen-induced platelet aggregation at 0.125 uM incubated for 4 min prior to collagen-induction measured for 5.5 min by turbidometric analysis (reference value: 50 to 98%); format: functional
Platelet [20] = experiment: Antiaggregating activity in Homo sapiens (human) platelet rich plasma assessed as inhibition of arachidonic acid-induced platelet aggregation at 1 uM incubated for 4 min prior to arachidonic acid-induction measured for 5.5 min by turbidometric analysis; format: functional, cell-free
[21] = Antiaggregating activity in Homo sapiens (human) platelet rich plasma assessed as disaggregation of ADP-induced platelet aggregation at 0.25 uM incubated for 4 min prior to ADP-induction measured for 5.5 min by turbidometric analysis relative to control; format: functional
[22] = Antiaggregating activity in Homo sapiens (human) platelet rich plasma assessed as collagen-induced platelet aggregation at 0.1 uM incubated for 4 min prior to collagen-induction measured for 5.5 min by turbidometric analysis (reference value: 50 to 98%); format: functional
[23] = Antiaggregating activity in Homo sapiens (human) platelet rich plasma assessed as disaggregation of ristocetin-induced platelet aggregation at 0.5 uM incubated for 4 min prior to ristocetin-induction measured for 5.5 min by turbidometric analysis relative to control; format: functional
Platelet [24] = experiment: Antiaggregating activity in Homo sapiens (human) platelet rich plasma assessed as inhibition of adrenaline-induced platelet aggregation at 0.1 uM incubated for 4 min prior to adrenaline-induction measured for 5.5 min by turbidometric analysis; format: functional, cell-free
[25] = Antiaggregating activity in Homo sapiens (human) platelet rich plasma assessed as ADP-induced platelet aggregation at 0.1 uM incubated for 4 min prior to ADP-induction measured for 5.5 min by turbidometric analysis (reference value: 54 to 88%); format: functional
Platelet [26] = experiment: Antiaggregating activity in Homo sapiens (human) platelet rich plasma assessed as inhibition of arachidonic acid-induced platelet aggregation at 0.1 uM incubated for 4 min prior to arachidonic acid-induction measured for 5.5 min by turbidometric analysis; format: functional, cell-free
[27] = Antiaggregating activity in Homo sapiens (human) platelet rich plasma assessed as ristocetin-induced platelet aggregation at 0.1 uM incubated for 4 min prior to ristocetin-induction measured for 5.5 min by turbidometric analysis (reference value: 65 to 99%); format: functional
[28] = Antiaggregating activity in Homo sapiens (human) platelet rich plasma assessed as disaggregation of arachidonic acid-induced platelet aggregation at 0.5 uM incubated for 4 min prior to arachidonic acid-induction measured for 5.5 min by turbidometric analysis relative to control; format: functional
[29] = Antiaggregating activity in Homo sapiens (human) platelet rich plasma assessed as arachidonic acid-induced platelet aggregation at 0.1 uM incubated for 4 min prior to arachidonic acid-induction measured for 5.5 min by turbidometric analysis (reference value: 55 to 100%); format: functional
[30] = Antiaggregating activity in Homo sapiens (human) platelet rich plasma assessed as disaggregation of arachidonic acid-induced platelet aggregation at 0.25 uM incubated for 4 min prior to arachidonic acid-induction measured for 5.5 min by turbidometric analysis relative to control; format: functional
[31] = Antiaggregating activity in Homo sapiens (human) platelet rich plasma assessed as ADP-induced platelet aggregation at 0.5 uM incubated for 4 min prior to ADP-induction measured for 5.5 min by turbidometric analysis (reference value: 54 to 88%); format: functional
[32] = Antiaggregating activity in Homo sapiens (human) platelet rich plasma assessed as ADP-induced platelet aggregation at 0.25 uM incubated for 4 min prior to ADP-induction measured for 5.5 min by turbidometric analysis (reference value: 54 to 88%); format: functional
[33] = Antiaggregating activity in Homo sapiens (human) platelet rich plasma assessed as collagen-induced platelet aggregation at 0.25 uM incubated for 4 min prior to collagen-induction measured for 5.5 min by turbidometric analysis (reference value: 50 to 98%); format: functional
[34] = Antiaggregating activity in Homo sapiens (human) platelet rich plasma assessed as ristocetin-induced platelet aggregation at 0.25 uM incubated for 4 min prior to ristocetin-induction measured for 5.5 min by turbidometric analysis (reference value: 65 to 99%); format: functional

Q: With `Cl.O=C(C1CCCN(Cc2ccc(F)cc2)C1)N1CCN(c2ccccc2Cl)CC1` (stereo not given) as the compound, how does the Activity [1] read?
A: The Activity was 68%.

Q: And the inhibition (Platelet [2])?
A: The inhibition was “Active”.

Q: What about the inhibition (Platelet [3]) of the same compound?
A: Its inhibition is “Active”.

Q: What about the inhibition (Platelet [4]) of the same compound?
A: The inhibition was “Active”.

Q: What about the Activity [5] of the same compound?
A: Its Activity is 67%.

Q: And the inhibition (Platelet [6])?
A: Its inhibition is “Active”.

Q: What about the inhibition (Platelet [7]) of the same compound?
A: The inhibition was “Active”.

Q: What about the inhibition (Platelet [8]) of the same compound?
A: Its inhibition is “Active”.

Q: What about the Activity [9] of the same compound?
A: Its Activity is 40%.

Q: And the inhibition (Platelet [10])?
A: Its inhibition is “Active”.

Q: And the inhibition (Platelet [11])?
A: The inhibition was “Active”.

Q: And the inhibition (Platelet [12])?
A: Its inhibition is “Active”.

Q: What about the inhibition (Platelet [13]) of the same compound?
A: Its inhibition is “Active”.

Q: And the Activity [14]?
A: The Activity was 100%.

Q: What about the inhibition (Platelet [15]) of the same compound?
A: Its inhibition is “Active”.

Q: What about the inhibition (Platelet [16]) of the same compound?
A: The inhibition was “Active”.

Q: What about the inhibition (Platelet [17]) of the same compound?
A: The inhibition was “Active”.

Q: What about the Activity [18] of the same compound?
A: The Activity was 80%.

Q: What about the Activity [19] of the same compound?
A: Its Activity is 72%.

Q: And the inhibition (Platelet [20])?
A: Its inhibition is “Active”.

Q: With `Br.O=C(C1CCCN(Cc2ccc([N+](=O)[O-])cc2)C1)N1CCN(c2ccccc2Cl)CC1` (stereo not given) as the compound, how does the Activity [1] read?
A: The Activity was 58%.

Q: And the inhibition (Platelet [2])?
A: Its inhibition is “Active”.

Q: What about the inhibition (Platelet [3]) of the same compound?
A: The inhibition was “Active”.

Q: What about the inhibition (Platelet [4]) of the same compound?
A: Its inhibition is “Active”.

Q: And the Activity [21]?
A: The Activity was 28%.

Q: What about the inhibition (Platelet [6]) of the same compound?
A: Its inhibition is “Active”.

Q: And the inhibition (Platelet [7])?
A: The inhibition was “Active”.

Q: What about the Activity [22] of the same compound?
A: Its Activity is 58%.

Q: And the Activity [23]?
A: Its Activity is 50%.

Q: And the Activity [9]?
A: Its Activity is 23%.

Q: What about the inhibition (Platelet [10]) of the same compound?
A: Its inhibition is “Active”.

Q: What about the inhibition (Platelet [11]) of the same compound?
A: Its inhibition is “Active”.

Q: What about the inhibition (Platelet [24]) of the same compound?
A: The inhibition was “Active”.

Q: And the inhibition (Platelet [12])?
A: Its inhibition is “Active”.

Q: What about the Activity [25] of the same compound?
A: The Activity was 57%.

Q: What about the inhibition (Platelet [15]) of the same compound?
A: Its inhibition is “Active”.

Q: What about the inhibition (Platelet [26]) of the same compound?
A: The inhibition was “Active”.

Q: What about the inhibition (Platelet [17]) of the same compound?
A: Its inhibition is “Active”.

Q: And the Activity [27]?
A: The Activity was 66%.

Q: And the inhibition (Platelet [20])?
A: Its inhibition is “Active”.

Q: Which inhibition (Platelet [2]) does the source give for `Br.O=C(C1CCCN(Cc2ccc(Br)cc2)C1)N1CCN(c2ccccn2)CC1` (stereo not given) here?
A: The inhibition was “Active”.

Q: And the inhibition (Platelet [3])?
A: The inhibition was “Active”.

Q: And the Activity [5]?
A: Its Activity is 63%.

Q: What about the Activity [28] of the same compound?
A: The Activity was 28%.

Q: What about the inhibition (Platelet [7]) of the same compound?
A: The inhibition was “Active”.

Q: And the Activity [22]?
A: Its Activity is 67%.

Q: And the Activity [29]?
A: The Activity was 72%.

Q: And the Activity [9]?
A: Its Activity is 24%.

Q: And the inhibition (Platelet [11])?
A: Its inhibition is “Active”.

Q: And the Activity [30]?
A: The Activity was 22%.

Q: What about the inhibition (Platelet [24]) of the same compound?
A: Its inhibition is “Active”.

Q: What about the inhibition (Platelet [12]) of the same compound?
A: Its inhibition is “Active”.

Q: And the Activity [31]?
A: The Activity was 18%.

Q: And the Activity [32]?
A: The Activity was 65%.

Q: What about the Activity [33] of the same compound?
A: The Activity was 64%.

Q: And the Activity [25]?
A: Its Activity is 76%.

Q: What about the inhibition (Platelet [17]) of the same compound?
A: The inhibition was “Active”.

Q: What about the Activity [34] of the same compound?
A: The Activity was 81%.

Q: And the Activity [27]?
A: Its Activity is 91%.

Q: And the inhibition (Platelet [20])?
A: Its inhibition is “Active”.
